Assay results from publication PMC10206040, “Identification of novel anti-amoebic pharmacophores from kinase inhibitor chemotypes” (Frontiers in Microbiology, 2023).
“Also recorded” adds a separate entry of the source. Like-named read-outs stand apart in the source and are kept apart here.

Legend:
[1] = tested on: Balamuthia mandrillaris (CDC:V039; ATCC 50209) trophozoites; experiment: CellTiter-Glo 2.0 trophocidal assay, B. mandrillaris; format: cell-based
From the text: For sub-culturing, 0.25% Trypsin–EDTA (Gibco) cell detachment reagent was used to detach the cells from the culture flasks.

[2] = tested on: Naegleria fowleri (ATCC 30215) trophozoites; experiment: microbe, parasite or virus in culture
Method: Trophozoites were routinely grown axenically at 34°C, 5% CO2, in Nelson’s complete medium (NCM) in non-vented 75 cm^2 tissue culture flasks (Olympus), until the cells were 80–90% confluent. For sub-culturing, cells were placed on ice to detach the cells from the culture flasks. […] Complete NCM media is prepared by the addition of 10% fetal bovine serum (FBS) and 100 U/mL penicillin, and 100 μg/mL streptomycin antibiotics.
Trophozoites were routinely cultured as described above and only logarithmic trophozoites were used.
All assays were incubated at each of the parasites’ representative growth temperatures, described above, for 72 h. At the 72-h time point, 25 μL of CellTiter-Glo 2.0 reagent was added to all wells of the 96-well plates by hand. The plates were protected from light and contents were mixed using an orbital shaker at 300 rpm at room temperature for 2 min to induce cell lysis. After shaking, the plates were equilibrated at room temperature for 10 min to stabilize the luminescent signal. The ATP luminescent signal (relative light units; RLUs) were measured […] with a SpectraMax I3X plate reader (Molecular Devices, Sunnyvale, CA, United States). […] Values reported are from a minimum of three biological replicates with standard deviation.

L6 cells = experiment: Rat skeletal muscle cell line (L6) cytotoxicity assay (resazurin); conditions: Table S2; in µM
Method: (§1) One hundred microliters (100 μL) per well of culture medium containing the compounds and controls were added to L6 cells previously cultured (4 × 10^3 L6 cells per well). After 72 h at 37°C the medium was exchanged, and the viable cell number was determined by resazurin (Sigma–Aldrich) reduction. 20 μl of resazurin (1.1 mg/ml) was added to each well and incubated in the dark for 2 h at 37°C.

[3] = as above; conditions: rat
Method: as §1

MRC5 cells = experiment: Human fetal lung fibroblast (MRC5) cell cytotoxicity assay (resazurin); conditions: for MRC5 TC50 ± Standard Deviation: Table S2, in µM
Method: (§2) Intermediate plates were made as described, adding 95 μL of DMEM complete media to 5 μL of compound per well setting a 5% DMSO amount. Log-phase MRC5 cells were removed from a T-75 TC flask using TrypLE® Express (Thermo®) and dispersed by gentle pipetting. Cell density was adjusted to working concentration in prewarmed DMEM medium: 25,000 cells in 90 μL of culture were plated in 96-well transparent Nunclon plates and allowed to settle for 24 h at 37°C and 5% CO2. […] Plates were incubated for 48 h at 37°C and 5% CO2. At 4 h prior to fluorescence measurement, 20 μL of 500 μM resazurin solution was added.
(§3) A four-parameter equation was used to fit the dose–response curves and determination of EC50 by SigmaPlot ® 13.0 software. Assays were performed in duplicate at least twice for positive compounds, to achieve a minimal […] per dose response.

[4] = as above; conditions: human
Method: as §2, §3

[5] = tested on: Acanthamoeba castellanii T4 isolate (ATCC 50370) trophozoites; experiment: CellTiter-Glo 2.0 trophocidal assay, A. castellanii; format: cell-based; conditions: Acanthamoeba castellanii, ATCC50370, 72 h, read-out: Acanthamoeba castellanii EC50 ± SD
From the text: This isolate was purchased from American Type Culture Collection (ATCC). […] For sub-culturing, cells were mechanically harvested to detach the cells from the culture flasks.

THP-1 = experiment: Cytotoxicity assay in THP-1 (MTT); format: cell-based; conditions: Table S2, 72 h, maximal concentration 50 μM
Method: Cytotoxicity assay in TH P-1. Cellular toxicity of all compounds was determined using the colorimetric MTT-based assay after incubation at 37 °C for 72 h in the presence of increasing concentrations of compounds (final maximal concentration was 50 μM in 0.5% DMSO per well) [ 1] . The results are expressed […]
cells. Assays were performed in duplicate at least twice to achieve a minimal n=3 per dose response. […]
Cytotoxicity assay in THP-1. Cellular toxicity of all compounds was determined using the colorimetric MTT-based assay after incubation at 37 °C for 72 h in the presence of increasing concentrations of compounds (final maximal concentration was 50 μM in 0.5% DMSO per well). […] Assays were performed in duplicate at least twice to achieve a minimal n=3 per dose response.

[6] = cited from earlier work; for blood/brain ratio: 10 mg/kg I.P., 2019; for in vivo toxicity in PK study: dosed I.P. at 10 mg/kg, ref Tear et al., 2020
[7] = Balamuthia mandrillaris, ATCC50209, 72 h, logarithmic trophozoites, 72 h, n = 3, read-out: Balamuthia mandrillaris EC50 ± SD
[8] = Naegleria fowleri, ATCC30215, 72 h, read-out: Naegleria fowleri EC50 ± SD, logarithmic trophozoites, 72 h, n = 3 (converted)
[9] = L6 cells (rat skeletal muscle cell line)
[10] = MRC5 cells (human fetal lung fibroblasts)
[11] = logarithmic trophozoites, 72 h, n = 3
[12] = Balamuthia mandrillaris, ATCC50209, 72 h, read-out: Balamuthia mandrillaris EC50 ± SD
[13] = Naegleria fowleri, 72 h, read-out: Naegleria fowleri EC50 ± SD, logarithmic trophozoites, 72 h, n = 3 (converted)

SMILES | EC50 [1, 7] [µM] | L6 TC50 ± Standard Deviation (L6 cells) | CC50 at 72 h [3, 9] [µM] | MRC5 TC50 ± Standard Deviation (MRC5 cells) | CC50 at 48 h [4, 10] [µM] | EC50 [5, 11] [µM] | THP-1 TC50 ± Standard Deviation (THP-1) | EC50 [2, 13] [µM] | also measured
Nc1ccnc(-c2cc3c4c(n[nH]c4c2)Nc2ccccc2O3)n1 [Compound 1a] | 17 ± 3 | 32 ± 2.5 | 32 ± 2.5 | > 50 | > 50 | 3.8 ± 0.46 | > 50 |  | EC50 [2, 8]: ≤ 14 µM; EC50 ([2]; read-out: Naegleria fowleri EC50 ± SD, logarithmic trophozoites, 72 h, n = 3): 8.5 ± 0.34 µM
CNc1nccc(-c2cc3c4c(n[nH]c4c2)Nc2ccccc2O3)n1 [Compound 1c] | 1.9 ± 1.3 | 6.3 ± 0.55 | 6.3 ± 0.55 | > 50 | > 50 | 3.3 ± 0.31 | 5.0 ± 0.11 |  | selectivity versus MRC5 ([2]; N. fowleri EC50 versus MRC5 cells): > 10 fold; selectivity versus THP-1 ([2]; N. fowleri EC50 versus THP-1 cells): > 10 fold
CCOc1cc(-c2ccnc(N)n2)cc2c1c(N)nn2C [Compound 1d] | 9.49 ± 0.23 | > 17 ± 0.052 | > 17 | > 50 | > 50 | 12 ± 8.3 | > 50 |  | EC50 ([1]; logarithmic trophozoites, 72 h, n = 3, read-out: Balamuthia mandrillaris EC50 ± SD): 9.5 ± 0.23 µM; EC50 [2, 8]: > 20 µM
Cn1nc2c3c(cc(-c4ccnc(N)n4)cc31)Oc1ccccc1N2 [Compound 1e] | 14 ± 0.29 | > 50 | > 50 | > 50 | > 50 | > 20 | > 50 |  | blood/brain ratio ([6]; 0.5 h, ref Klug et al.): 2.4; blood/brain ratio ([6]; 4 h, ref Klug et al.): 2.1; EC50 [2, 8]: > 20 µM
c1cncc(Nc2nccc(-c3cnn4ncccc34)n2)c1 [Compound 2b] |  |  |  |  | > 50 |  |  | 0.3 ± 0.21 | in vivo toxicity in PK study ([6]; 10 mg/kg): in vivo toxicity was observed; also recorded: acute toxicity was seen; EC50 [1, 12]: 5 ± 0.1 µM; EC50 [5]: 1.5 ± 0.12 µM
Cc1ccc(Nc2nccc(-c3cnn4ncccc34)n2)cn1 [Compound 2d] |  |  |  |  | > 50 |  |  | 0.43 ± 0.13 | in vivo toxicity in PK study [6]: acute toxicity was seen; EC50 [1, 12]: 1.6 ± 0.1 µM; EC50 [5]: 0.92 ± 0.3 µM
N#Cc1cccc(-c2n[nH]c3ncc(-c4cnn(C5CCOCC5)c4)cc23)c1 [Compound 4a] | 3.3 ± 0.62 | 2.8 ± 0.92 | 2.8 ± 0.92 | > 50 | > 50 | 11 ± 9 | > 50 |  | 
Cc1c(-c2cnn(C3CCOCC3)c2)cnc2[nH]cc(-c3cccc(C#N)c3)c12 [Compound 4b] | 1 ± 0.12 | 11 ± 1.5 | 11 ± 1.5 | > 50 | > 50 | 11 ± 2.3 | > 50 |  | activity/toxicity against MRC5 cells (in words) (MRC5 cells; up to 50 μM): not toxic
N#Cc1cccc(-c2c[nH]c3ncc(-c4cnn(C5CCNCC5)c4)cc23)c1 [Compound 4c] |  |  |  |  |  | > 20 |  |  | brain exposure in PK ([6]; ref Klug et al., 2021): negligible brain exposure
Cn1cc(-c2cnc3[nH]cc(-c4cncc(C#N)c4)c3c2)cn1 [Compound 4e] | 8.3 ± 1.3 | > 50 |  | > 50 | > 50 |  | > 50 |  | EC50 [2, 8]: > 20 µM
CN(C)Cc1ccc(-c2cc3c(-c4cnn(C)c4)ccnc3[nH]2)cc1 [Compound 5c] |  | < 0.62 |  | 14 ± 2.4 |  |  | < 0.62 | 5.6 ± 0.29 | EC50 ([1]; Balamuthia mandrillaris, ATCC50209, 72 h, read-out: Balamuthia mandrillaris EC50 ± SD, logarithmic trophozoites, 72 h, n = 3 (converted)): 12 ± 0.09 µM; CC50 at 72 h [3]: < 0.62 µM; CC50 at 48 h [4]: 11 ± 0.9 µM
FC1(F)CCN(c2nc(Nc3ccsc3)nc3[nH]cnc23)CC1 [Compound 6e] |  | > 50 | > 50 | > 50 | > 50 |  | > 50 |  | EC50 [2, 8]: > 20 µM
Cn1cc(Nc2nc(NCC(F)(F)F)c3nc[nH]c3n2)cn1 [Compound S21] | > 20 | 28 ± 1.4 |  | 50 |  | > 20 | > 50 | > 20 | 
Cn1cc(Nc2nc(N3CCOCC3)c3nc[nH]c3n2)cn1 [Compound S22] | > 20 | 11 ± 1.0 |  | 19 ± 0.42 |  | > 20 | 19 ± 0.52 | > 20 | 
Fc1ccc(Nc2nc(NCC(F)(F)F)c3nc[nH]c3n2)cc1 [Compound S23] | > 20 | > 50 |  | > 50 |  | > 20 | > 50 | > 20 | 
Cn1cc(Nc2nc(NCCCC(F)(F)F)c3nc[nH]c3n2)cn1 [Compound S24] | > 20 | > 50 |  | 50 ± 0 |  | > 20 | > 50 | > 20 | 
c1cc(-c2c[nH]c3ncc(-c4cnn(C5CCOCC5)c4)cc23)ccn1 [Compound S31] | > 20 | 5.7 ± 0.49 |  | 7.9 ± 2.3 |  | > 20 | 5.8 ± 0.43 | > 20 | 
